Data published in patent US20110190247A1, “CYCLOPROPYLCHROMENE DERIVATIVES AS MODULATORS OF THE ALPHA-2C RECEPTOR” (Schering Corporation, priority 2008, published 2011).
pKi: −log10 of the molar value.

Key:
[1] = target: T1, α2C receptor (Homo sapiens, UniProt P18825); assay: GTPγS assay, efficacy agonist activity (Emax) at α2C; format: biochemical; conditions: for evaluated as agonist of the α2C receptor subtype: by definition: efficacy at α2C 30% Emax (GTPγS assay), functionally selective if efficacy at α2A ≦35% Emax; for evaluated as antagonist of the α2C receptor subtype: by definition: efficacy at α2C <30% Emax (GTPγS assay) and Ki <500 nM
T1 sequence (P18825 1-462): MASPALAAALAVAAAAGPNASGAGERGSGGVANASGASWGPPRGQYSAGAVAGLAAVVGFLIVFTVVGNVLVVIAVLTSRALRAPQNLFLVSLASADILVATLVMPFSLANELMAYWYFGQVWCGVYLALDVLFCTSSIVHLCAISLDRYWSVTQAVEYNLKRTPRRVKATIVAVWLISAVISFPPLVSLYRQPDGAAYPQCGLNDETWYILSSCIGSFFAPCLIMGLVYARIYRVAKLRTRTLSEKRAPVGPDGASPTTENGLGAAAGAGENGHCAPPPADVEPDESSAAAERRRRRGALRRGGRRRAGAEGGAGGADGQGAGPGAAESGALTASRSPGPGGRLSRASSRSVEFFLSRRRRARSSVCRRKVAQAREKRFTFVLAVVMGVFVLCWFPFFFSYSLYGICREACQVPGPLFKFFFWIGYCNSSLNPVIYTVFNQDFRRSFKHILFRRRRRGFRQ
Experimental: Efficacy agonist activity values (Emax, GTPγS assay) for α2A and α2C were determined by following the general procedure detailed by Umland et. al (“Receptor reserve analysis of the human α2c-adrenoceptor using [^35S]GTPγS and cAMP functional assays” European Journal of Pharmacology 2001, 411, 211-221). For the purposes of the present invention, a compound is defined to be a specific or at least functionally selective agonist of the α2C receptor subtype if the compound's efficacy at the α2C receptor is […] (GTPγS assay) and its efficacy at the α2A receptor is ≦35% Emax (GTPγS assay). Additionally, for the purposes of this invention, a compound is defined to be an antagonist of the α2C receptor subtype if the compound's efficacy at the α2C receptor is <30% Emax (GTPγS assay) and the Ki at the α2C receptor subtype was <500 nM, preferentially <200 nM, and most preferentially <20 nM.

[2] = target: T1, α2C receptor; assay: binding inhibition at the α2C receptor (Ki); conditions: compounds classed as α2C antagonists; read-out: Ki at the α2C receptor subtype

| evaluated as antagonist of the α2C receptor subtype [1] | pKi [2] | Structure (SMILES) | evaluated as agonist of the α2C receptor subtype [1] |
| --- | --- | --- | --- |
|  |  | Cn1nccc1-c1ccc2c(c1)[C@@H]1[C@H](CO2)[C@H]1c1c[nH]cn1 (racemic) [(±)-2A] | active or functionally selective agonists |
|  |  | Cc1n[nH]c(C)c1-c1ccc2c(c1)[C@@H]1[C@H](CO2)[C@H]1c1c[nH]cn1 (racemic) [(±)-2C] | active or functionally selective agonists |
| antagonist | > 6.70 | c1ncc(-c2ccc3c(c2)[C@@H]2[C@H](CO3)[C@H]2c2c[nH]cn2)cn1 (racemic) [(±)-2] |  |
| antagonist | > 6.70 | Cc1noc(C)c1-c1ccc2c(c1)[C@@H]1[C@H](CO2)[C@H]1c1c[nH]cn1 (racemic) [(±)-2d] |  |
| antagonist | > 6.70 | c1nc([C@@H]2[C@H]3COc4ccc(-c5cn[nH]c5)cc4[C@H]32)c[nH]1 (racemic) [(±)-2e] |  |
| antagonist | > 6.70 | Cc1nn(C)c(C)c1-c1ccc2c(c1)[C@@H]1[C@H](CO2)[C@H]1c1c[nH]cn1 (racemic) [(±)-2f] |  |
|  |  | CCN(C(=O)NC)c1ccc2c(c1)[C@@H]1[C@H](CO2)[C@H]1c1c[nH]cn1 (racemic) [(±)-3] | active or functionally selective agonists |
|  |  | CCN(C(=O)OC)c1ccc2c(c1)[C@@H]1[C@H](CO2)[C@H]1c1c[nH]cn1 (racemic) [(±)-4] | active or functionally selective agonists |
|  |  | COCC(=O)N(C)c1ccc2c(c1)[C@@H]1[C@H](CO2)[C@H]1c1c[nH]cn1 (racemic) [(±)-5] | active or functionally selective agonists |
| antagonist | > 6.70 | CNc1ncncc1-c1ccc2c(c1)[C@@H]1[C@H](CO2)[C@H]1c1c[nH]cn1 (racemic) [(±)-7] |  |
|  |  | CNc1ncnc(C)c1-c1ccc2c(c1)[C@@H]1[C@H](CO2)[C@H]1c1c[nH]cn1 (racemic) [(±)-8] | active or functionally selective agonists |
| antagonist | > 6.70 | CCN(C(=O)COC)c1ccc2c(c1)[C@@H]1[C@H](CO2)[C@H]1c1c[nH]cn1 (racemic) [(±)-100] |  |
|  |  | CNC(=O)N(C)c1ccc2c(c1)[C@@H]1[C@H](CO2)[C@H]1c1c[nH]cn1 (racemic) [(±)-101] | active or functionally selective agonists |
|  |  | COC(=O)N(C)c1ccc2c(c1)[C@@H]1[C@H](CO2)[C@H]1c1c[nH]cn1 (racemic) [(±)-102] | active or functionally selective agonists |
